# Laboratory results reported in patent US9561231B2 (AbbVie Inc., priority 2012, dated 2017).
# pEC50, pKi: −log10 of the molar value.
# Tests used:
# [1] = tested on: breast cancer cell line MX-1; experiment: MX-1 cell line proliferation assay (3-day); assay type: cell-based; details: Homo sapiens, MX1; MX-1 cells, 72 h incubation, Cell Titer Glo; read-out: Cellular proliferation: EC50
# How it was run: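 MX-1 cells in RPMI/10% FBS, plated 5000/well overnight, then exposed to compound at final 3 to 0.0001 μM (3-fold series) for 3 days at 37° C. Cell Titer Glo luminescence normalized to DMSO-treated cells; EC50 from sigmoidal curve fit.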
# [2] = target: T1, second (BD2: amino acids E352-E168) bromodomain of BRD4 (Homo sapiens, UniProt O60885); experiment: TR-FRET bromodomain binding assay, BRD4 BD2; details: TR-FRET assay protocol (A-G, compound concentration range); Ki calculated from IC50, probe Kd and probe concentration; read-out: TR-FRET Binding Ki: BRD4 (BDII_E352-M457)
# T1 construct: protocol
# How it was run: (§1)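 Values are Ki: IC50s from TR-FRET competition with an Alexa647-labeled BET-inhibitor probe were converted using probe Kd and probe concentration. Purified His-tagged bromodomain; pH 6.0 sodium phosphate buffer.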
# [3] = target: T2, first (BD1: amino acids K57-E168) bromodomain of BRD4 (Homo sapiens, UniProt O60885); experiment: TR-FRET bromodomain binding assay, BRD4 BD1; details: TR-FRET assay protocol (A-G, compound concentration range); Ki calculated from IC50, probe Kd and probe concentration; read-out: TR-FRET Binding Ki: BRD4 (BDI_K57-E168)
# T2 construct: His-tagged first (BD1: amino acids K57-E168)
# How it was run: as §1
Structure (SMILES),pEC50 [1],pKi [2],pKi [3]
"Cc1cc(-c2cc(NS(C)(=O)=O)ccc2Oc2ccc(F)cc2F)c[nH]c1=O [Example 263, N-[4-(2,4-difluorophenoxy)-3-(5-methyl-6-oxo-1,6-dihydropyridin-3-yl)phenyl]methanesulfonamide]",6.52,6.92,7.31
"CCS(=O)(=O)Nc1ccc(Oc2ccc(F)cc2F)c(-c2c[nH]c(=O)c(C)c2)c1 [Example 264, N-[4-(2,4-difluorophenoxy)-3-(5-methyl-6-oxo-1,6-dihydropyridin-3-yl)phenyl]ethanesulfonamide]",6.75,7.26,7.47
"CC(=O)Nc1ccc(Oc2ccc(F)cc2F)c(-c2c[nH]c(=O)c(C)c2)c1 [Example 265, N-[4-(2,4-difluorophenoxy)-3-(5-methyl-6-oxo-1,6-dihydropyridin-3-yl)phenyl]acetamide]",5.76,6.76,6.88
"Cc1cc(-c2cc(NS(C)(=O)=O)ccc2OC2CCC(F)(F)CC2)c[nH]c1=O [Example 266, N-{4-[(4,4-difluorocyclohexyl)oxy]-3-(5-methyl-6-oxo-1,6-dihydropyridin-3-yl)phenyl}methanesulfonamide]",< 5.52,6.47,7.23
"CCS(=O)(=O)Nc1ccc(OC2CCC(F)(F)CC2)c(-c2c[nH]c(=O)c(C)c2)c1 [Example 267, N-{4-[(4,4-difluorocyclohexyl)oxy]-3-(5-methyl-6-oxo-1,6-dihydropyridin-3-yl)phenyl}ethanesulfonamide]",< 5.52,7.00,7.32
"CCS(=O)(=O)Nc1ccc(Oc2ccc(F)cc2F)c(-c2cn(C)c(=O)cc2C(F)(F)F)c1 [Example 268, N-{4-(2,4-difluorophenoxy)-3-[1-methyl-6-oxo-4-(trifluoromethyl)-1,6-dihydropyridin-3-yl]phenyl}ethanesulfonamide]",6.24,7.02,6.32
"Cn1cc(-c2cc(NS(C)(=O)=O)ccc2Oc2ccc(F)cc2F)c(-c2ccc(CO)cc2)cc1=O [Example 272, N-[4-(2,4-difluorophenoxy)-3-{4-[4-(hydroxymethyl)phenyl]-1-methyl-6-oxo-1,6-dihydropyridin-3-yl]phenyl}methanesulfonamide]",6.78,8.34,7.77
"CN1CCN(Cc2ccc(-c3cc(=O)n(C)cc3-c3cc(NS(C)(=O)=O)ccc3Oc3ccc(F)cc3F)cc2)CC1 [Example 273, N-[4-(2,4-difluorophenoxy)-3-(1-methyl-4-{4-[(4-methylpiperazin-1-yl)methyl]phenyl}-6-oxo-1,6-dihydropyridin-3-yl)phenyl]methanesulfonamide]",6.97,8.61,8.34
"Cn1cc(-c2cc(NS(C)(=O)=O)ccc2Oc2ccc(F)cc2F)c(-c2ccc(N3CCOCC3)cc2)cc1=O [Example 274, N-[4-(2,4-difluorophenoxy)-3-{1-methyl-4-[4-(morpholin-4-yl)phenyl]-6-oxo-1,6-dihydropyridin-3-yl]phenyl}methanesulfonamide]",7.11,8.26,7.61
"CCS(=O)(=O)c1ccc(OCC2CC2)c(-c2cn(C)c(=O)cc2OC)c1 [Example 275, 5-[2-(cyclopropylmethoxy)-5-(ethylsulfonyl)phenyl]-4-methoxy-1-methylpyridin-2(1H)-one]",6.65,6.92,7.25
"CCOc1cc(=O)n(C)cc1-c1cc(NS(C)(=O)=O)ccc1Oc1ccc(F)cc1F [Example 277, N-[4-(2,4-difluorophenoxy)-3-(4-ethoxy-1-methyl-6-oxo-1,6-dihydropyridin-3-yl)phenyl]methanesulfonamide]",7.32,8.28,7.97
"CCS(=O)(=O)Nc1ccc(Oc2ccc(F)cc2F)c(-c2cn(C)c(=O)cc2-c2ccc(CO)cc2)c1 [Example 278, N-[4-(2,4-difluorophenoxy)-3-{4-[4-(hydroxymethyl)phenyl]-1-methyl-6-oxo-1,6-dihydropyridin-3-yl]phenyl}ethanesulfonamide]",7.20,8.86,8.12
"CCS(=O)(=O)Nc1ccc(Oc2ccc(F)cc2F)c(-c2cn(C)c(=O)cc2-c2ccc(CN3CCN(C)CC3)cc2)c1 [Example 279, N-[4-(2,4-difluorophenoxy)-3-(1-methyl-4-{4-[(4-methylpiperazin-1-yl)methyl]phenyl}-6-oxo-1,6-dihydropyridin-3-yl)phenyl]ethanesulfonamide]",7.34,8.89,8.56
"CCS(=O)(=O)Nc1ccc(Oc2ccc(F)cc2F)c(-c2cn(C)c(=O)cc2-c2ccc(CN(C)C)cc2)c1 [Example 280, N-[4-(2,4-difluorophenoxy)-3-(4-{4-[(dimethylamino)methyl]phenyl}-1-methyl-6-oxo-1,6-dihydropyridin-3-yl)phenyl]ethanesulfonamide]",7.42,8.76,8.42
"Cn1cc(-c2ccccc2Oc2ccccc2)cc(Cl)c1=O [Example 281, 3-chloro-1-methyl-5-(2-phenoxyphenyl)pyridin-2(1H)-one]",5.78,6.29,6.82
"CCS(=O)(=O)Nc1ccc(Oc2ccc(F)cc2F)c(-c2cc(Cl)c(=O)n(C)c2)c1 [Example 283, N-[3-(5-chloro-1-methyl-6-oxo-1,6-dihydropyridin-3-yl)-4-(2,4-difluorophenoxy)phenyl]ethanesulfonamide]",6.71,7.40,7.76
"CCS(=O)(=O)Nc1ccc(Oc2ccc(F)cc2F)c(-c2cn(C)c(=O)cc2-c2ccc(N3CCOCC3)cc2)c1 [Example 284, N-[4-(2,4-difluorophenoxy)-3-{1-methyl-4-[4-(morpholin-4-yl)phenyl]-6-oxo-1,6-dihydropyridin-3-yl]phenyl}ethanesulfonamide]",7.35,8.74,8.24
"CCS(=O)(=O)Nc1ccc(Oc2ccc(F)cc2F)c(-c2cn(C)c(=O)cc2OCCN2CCOCC2)c1 [Example 286, N-[4-(2,4-difluorophenoxy)-3-{1-methyl-4-[2-(morpholin-4-yl)ethoxy]-6-oxo-1,6-dihydropyridin-3-yl]phenyl}ethanesulfonamide]",< 5.52,7.12,7.08
"CCS(=O)(=O)Nc1ccc(Oc2ccc(F)cc2F)c(-c2cn(C)c(=O)cc2OCC2CC2)c1 [Example 287, N-(3-(4-(cyclopropylmethoxy)-1-methyl-6-oxo-1,6-dihydropyridin-3-yl)-4-(2,4-difluorophenoxy)phenyl)ethanesulfonamide]",7.22,8.67,8.18
"CCS(=O)(=O)Nc1ccc(Oc2ccc(F)cc2F)c(-c2cn(C)c(=O)cc2OC(C)C)c1 [Example 289, N-{4-(2,4-difluorophenoxy)-3-[1-methyl-6-oxo-4-(propan-2-yloxy)-1,6-dihydropyridin-3-yl]phenyl}ethanesulfonamide]",7.11,9.19,8.20
"CCS(=O)(=O)Nc1ccc(Oc2ccc(F)cc2F)c(-c2cn(C)c(=O)cc2OCC(C)C)c1 [Example 290, N-{4-(2,4-difluorophenoxy)-3-[1-methyl-4-(2-methylpropoxy)-6-oxo-1,6-dihydropyridin-3-yl]phenyl}ethanesulfonamide]",6.86,8.49,7.92
"CCS(=O)(=O)Nc1ccc(Oc2ccc(F)cc2F)c(-c2cn(C)c(=O)cc2OCC2CCOC2)c1 (stereo not drawn) [Example 291, N-{4-(2,4-difluorophenoxy)-3-[1-methyl-6-oxo-4-(tetrahydrofuran-3-ylmethoxy)-1,6-dihydropyridin-3-yl]phenyl}ethanesulfonamide]",6.95,8.20,7.79
"CCS(=O)(=O)Nc1ccc(Oc2ccc(C(N)=O)cc2)c(-c2cn(C)c(=O)cc2OCC(F)(F)F)c1 [Example 294, 4-{4-[(ethylsulfonyl)amino]-2-[1-methyl-6-oxo-4-(2,2,2-trifluoroethoxy)-1,6-dihydropyridin-3-yl]phenoxy}benzamide]",< 5.52,8.08,7.56
"CCOc1cc(=O)n(C)cc1-c1cc(NC(=O)c2ccc(COc3ccccc3)cc2)ccc1Oc1ccc(F)cc1F [Example 297, N-[4-(2,4-difluorophenoxy)-3-(4-ethoxy-1-methyl-6-oxo-1,6-dihydropyridin-3-yl)phenyl]-4-(phenoxymethyl)benzamide]",5.62,6.59,< 6.62
"CCOc1cc(=O)n(C)cc1-c1cc(NC(=O)CCC(C)C)ccc1Oc1ccc(F)cc1F [Example 298, N-[4-(2,4-difluorophenoxy)-3-(4-ethoxy-1-methyl-6-oxo-1,6-dihydropyridin-3-yl)phenyl]-4-methylpentanamide]",6.20,7.26,6.84
"CCOc1cc(=O)n(C)cc1-c1cc(NC(=O)c2ccc(NC(C)=O)cc2)ccc1Oc1ccc(F)cc1F [Example 300, 4-(acetylamino)-N-[4-(2,4-difluorophenoxy)-3-(4-ethoxy-1-methyl-6-oxo-1,6-dihydropyridin-3-yl)phenyl]benzamide]",6.54,7.61,7.59
